Test results: patent US9066865B2, “Pharmaceutical compositions for the treatment of inner ear disorders” (AURIS MEDICAL AG, priority 2005, dated 2015)

Tests used:
[1] = in vitro release of Ketamine from hyaluronic acid gel into PBS (without membrane or Franz cell with filter/dialysis membrane); format: physicochemical
Method: A hyaluronic acid solution (Hylumed, Genzyme Corp.) was prepared at concentrations of 5 and 7.5% in phosphate buffered saline (PBS). At 8%, handling of the gel had shown to be difficult due to the high viscosity. S-(+)-Ketamine hydrochloride (Sigma-Aldrich) was dissolved at a concentration of 2% (weight/weight) equivalent to 73 mM. To evaluate the importance of the drug load factor, concentrations of 0.5% and 2.5% were also tested. Release of the pharmacologically active agent was measured in PBS, a common receiver fluid for controlled release studies, either without any membrane or by using a filter membrane or a dialysis membrane (Spectropore) in a Franz cell (PermeGear). The membranes were employed to mimic the rate limiting membrane of the round window. The temperature of the fluid was maintained constant at body temperature. The bottom chamber of the Franz cell was filled with 5 ml of PBS as the receiver fluid. The receiver fluid contained a stir bar for continuous agitation. The upper chamber was filled with approximately 50 mg of gel and the cell assembled. At various time points, aliquots (typically 1 ml) were withdrawn and analyzed by UV spectrophotometry (Agilent 8453). The absorbance at 215 nm was measured and the concentration calculated using an extinction coefficient of 30 ml/mg cm. As the volume of the aliquot was known, the total amount released could be determined. Each time an aliquot was withdrawn, the same volume of PBS was placed back into the Franz cell chamber.

[2] = pharmacokinetic study: Ketamine in perilymph after 2.8% hyaluronic acid gel on the round window membrane; format: in vivo; settings: 1 mM, guinea pig
Method: In a second step, a pharmacokinetic study with pigmented guinea pigs was carried out in order to evaluate in vivo the diffusion of Ketamine from a hyaluronic acid gel formulation across the round window membrane into the inner ear. A total of 30 animals were tested for concentrations of the pharmaceutical compound in the perilymph at 1 hour, 3 hours, 8 hours, 24 hours and 72 hours following gel administration; 6 animals per time point were tested.
Animals were anaesthetized with a single-dose i.p. injection of 0.3 ml/kg of pentobarbital at 6% (Ceva sante animale), and the right ear bulla was opened using a posterior auricular surgical procedure (dorsal approach). 2 microliters of the hyaluronic gel formulation (2.8% Hylumed Sterile in artificial perilymph, molecular weight 2.44 million; Genzyme Corp.) with S-(+)-Ketamine (Sigma-Aldrich) at a concentration of 1 milliM were then deposited onto the round window membrane of the inner ear. At each of the aforementioned time points, one group of animals was decapitated under deep anaesthesia (pentobarbital 50 mg/kg). […] The samples were then analyzed by liquid chromatography mass spectrometry with a limit of quantification of 0.2 ng/ml (HPLC instrument: Perkin Elmer series 200; mass spectrometer detector: MSD Sciex API 4000 Applied Biosystems; column: Zorbax SB CN 50×2.1 mm 5 μm-Agilent technologies).

[3] = tested on: PCP binding site of the NMDA receptor; settings: relative to (R)-ketamine; cited from earlier work

SMILES: CN[C@@]1(c2ccccc2Cl)CCCCC1=O (stereo in doubt) [Ketamine, 2-(2-chlorophenyl)-2-(methylamino)-cyclohexanone]
- release rate at 7.5% hyaluronic acid compared with 5% ([1]; 7.5% hyaluronic acid gel, rate limiting membrane): less quickly than at 5%
- duration of release of Ketamine into PBS ([1]; Franz cell with dialysis membrane): about three days
- duration of release of Ketamine into PBS ([1]; Franz cell with filter membrane): approximately 60 hours
- release speed compared with Ketamine hydrochloride solution ([1]; gel with 0.5% Ketamine by weight, Franz cell with filter membrane): nearly as fast as a simple Ketamine hydrochloride solution
- amount released in the first hour (initial burst) ([1]; gel with 2.5% Ketamine loading factor, Franz cell with filter membrane): about 20%
- share of the total cumulative concentration in PBS achieved ([1]; hyaluronic acid gel, no rate limiting membrane, after one hour): ~50%
- duration of release of Ketamine from hyaluronic acid gel ([1]; no membrane): over just a few hours
- time to maximum concentration of Ketamine in perilymph ([2]; 2 microliters on round window membrane): within one hour
- last quantifiable levels in perilymph ([2]; LOQ 0.2 ng/ml): after three days
- higher affinity to the PCP binding site of the NMDA receptor than (R)-ketamine [3]: 3-4 fold
